# Test results published in US4340609A, “Amidinourea derivative veterinary compositions for suppression of parasitemia” (William H. Rorer, Inc., priority 1980, dated 1982).
# Counter-ions that a name gives are not always drawn. Like-named read-outs stand apart in the source and are kept apart here.
# Columns and labels:
# LD50 in mice = conditions: mouse, in vivo
# plasmodium berghei = experiment: suppression of parasitemia in mice infected with plasmodium berghei; format: in vivo; conditions: for ED50: Plasmodium berghei, sc; for ED50 / Mean % Parasitemia / Mean % Suppression / % died: mice; for FACTOR (HIGHEST SED50 ÷ LOWEST SED50): factor of change, duration of action
# Experimental: Five representative amidinoureas were tested in mice infected with plasmodium berghei. The five compounds tested are the following:
# Groups of 10 mice each were used in seven doses totaling 70 mice per compound. The protozoal infection was induced by intraperitoneal injection of 5,000,000 parasitized blood cells from a donor. The compound was administered subcutaneously in doses ranging from 0.15 to 10 mg. per kg., suspended on 0.5% methacel solution (doses expressed as base). The compound was repeatedly injected on the day of inoculation (day 1), day 2 and day 3. Blood smears were performed on days 4, 5, 6 and 10.
# Untreated control but infected mice developed fulminating parasitemia of as high as 35% on day 10 and deaths occurred from day 12 to 14.
# [1] = test system: Babesis caballi, or B. equi; conditions: horses; reported; cited from earlier work
# [2] = 96 h, s.c., levels of parasitemia, 4th day, read-out: SED50 (Suppressant Effective Dose50)
# [3] = 120 h, s.c., levels of parasitemia, 5th day, read-out: SED50 (Suppressant Effective Dose50)
# [4] = 144 h, s.c., levels of parasitemia, 6th day, read-out: SED50 (Suppressant Effective Dose50)
# [5] = 240 h, s.c., levels of parasitemia, 10th day, read-out: SED50 (Suppressant Effective Dose50)
# [6] = day 4 to day 10, read-out: HIGHEST SED50
# [7] = day 4 to day 10, read-out: LOWEST SED50
# [8] = s.c., 1.0 mg/kg on days 1-3, 4th day
# [9] = s.c., 1.0 mg/kg on days 1-3, 5th day
# [10] = s.c., 1.0 mg/kg on days 1-3, 6th day
# [11] = s.c., 1.0 mg/kg on days 1-3, 10th day
# [12] = s.c., 2.0 mg/kg on days 1-3, 4th day
# [13] = s.c., 2.0 mg/kg on days 1-3, 5th day
# [14] = s.c., 2.0 mg/kg on days 1-3, 6th day
# [15] = s.c., 2.0 mg/kg on days 1-3, 10th day
# [16] = s.c., 2.0 mg/kg on days 1-3, 12th day
# [17] = s.c., 2.0 mg/kg on days 1-3, 13th day
# [18] = s.c., 2.0 mg/kg on days 1-3, 14th day
# [19] = s.c., 10.0 mg/kg on days 1-3, 4th day
# [20] = s.c., 10.0 mg/kg on days 1-3, 5th day
# [21] = s.c., 10.0 mg/kg on days 1-3, 6th day
# [22] = s.c., 10.0 mg/kg on days 1-3, 10th day
# [23] = s.c., 10.0 mg/kg on days 1-3, 13th day
# [24] = s.c., 10.0 mg/kg on days 1-3, 14th day
# [25] = s.c., .15 mg/kg on days 1-3, 4th day
# [26] = s.c., .15 mg/kg on days 1-3, 5th day
# [27] = s.c., .15 mg/kg on days 1-3, 6th day
# [28] = s.c., .15 mg/kg on days 1-3, 10th day
# [29] = s.c., .20 mg/kg on days 1-3, 4th day
# [30] = s.c., .20 mg/kg on days 1-3, 5th day
# [31] = s.c., .20 mg/kg on days 1-3, 6th day
# [32] = s.c., .20 mg/kg on days 1-3, 10th day
# [33] = s.c., .20 mg/kg on days 1-3, 12th day
# [34] = s.c., .20 mg/kg on days 1-3, 13th day
# [35] = s.c., .20 mg/kg on days 1-3, 14th day
# [36] = s.c., .30 mg/kg on days 1-3, 4th day
# [37] = s.c., .30 mg/kg on days 1-3, 5th day
# [38] = s.c., .30 mg/kg on days 1-3, 6th day
# [39] = s.c., .30 mg/kg on days 1-3, 10th day
# [40] = s.c., .50 mg/kg on days 1-3, 4th day
# [41] = s.c., .50 mg/kg on days 1-3, 5th day
# [42] = s.c., .50 mg/kg on days 1-3, 6th day
# [43] = s.c., .50 mg/kg on days 1-3, 10th day
# [44] = s.c., .50 mg/kg on days 1-3, 12th day
# [45] = s.c., .50 mg/kg on days 1-3, 13th day
# [46] = s.c., .50 mg/kg on days 1-3, 14th day
smiles,measurement,setting,value
"CCCN=C(NC)NC(=O)Nc1c(C)cccc1C [Compound D, 1-(2,6-dimethylphenyl)-3-N-methyl-N'-propylamidino)urea hydrochloride]",LD50,LD50 in mice,222 to 366 mg/kg
same,ED50,plasmodium berghei; [2],0.9 mg/kg
same,ED50,plasmodium berghei; [3],1.91 mg/kg
same,ED50,plasmodium berghei; [4],2.09 mg/kg
same,ED50,plasmodium berghei; [5],4.47 mg/kg
same,ED50,plasmodium berghei; [6],4.47 mg/kg
same,ED50,plasmodium berghei; [7],0.9 mg/kg
same,FACTOR (HIGHEST SED50 ÷ LOWEST SED50),plasmodium berghei; day 4 to day 10,4.97
same,Mean % Parasitemia,plasmodium berghei; [8],2.25%
same,Mean % Suppression,plasmodium berghei; [8],57.1%
same,Mean % Parasitemia,plasmodium berghei; [9],6.50%
same,Mean % Suppression,plasmodium berghei; [9],11.0%
same,Mean % Parasitemia,plasmodium berghei; [10],6.70%
same,Mean % Suppression,plasmodium berghei; [10],28.0%
same,Mean % Parasitemia,plasmodium berghei; [11],22.4%
same,Mean % Suppression,plasmodium berghei; [11],36.9%
same,% died,"plasmodium berghei; s.c., 1.0 mg/kg on days 1-3, 12th day",20%
same,% died,"plasmodium berghei; s.c., 1.0 mg/kg on days 1-3, 13th day",20%
same,% died,"plasmodium berghei; s.c., 1.0 mg/kg on days 1-3, 14th day",40%
same,Mean % Parasitemia,plasmodium berghei; [12],1.75%
same,Mean % Suppression,plasmodium berghei; [12],66.6%
same,Mean % Parasitemia,plasmodium berghei; [13],3.30%
same,Mean % Suppression,plasmodium berghei; [13],54.8%
same,Mean % Parasitemia,plasmodium berghei; [14],4.80%
same,Mean % Suppression,plasmodium berghei; [14],48.4%
same,Mean % Parasitemia,plasmodium berghei; [15],20.5%
same,Mean % Suppression,plasmodium berghei; [15],42.3%
same,% died,plasmodium berghei; [16],20%
same,% died,plasmodium berghei; [17],20%
same,% died,plasmodium berghei; [18],20%
same,Mean % Parasitemia,plasmodium berghei; [19],0.25%
same,Mean % Suppression,plasmodium berghei; [19],96.2%
same,Mean % Parasitemia,plasmodium berghei; [20],0%
same,Mean % Suppression,plasmodium berghei; [20],100.0%
same,Mean % Parasitemia,plasmodium berghei; [21],0%
same,Mean % Suppression,plasmodium berghei; [21],100.0%
same,Mean % Parasitemia,plasmodium berghei; [22],0%
same,Mean % Suppression,plasmodium berghei; [22],100.0%
same,% died,plasmodium berghei; [23],0%
same,% died,plasmodium berghei; [24],0%
same,Mean % Parasitemia,plasmodium berghei; [25],5.00%
same,Mean % Suppression,plasmodium berghei; [25],4.8%
same,Mean % Parasitemia,plasmodium berghei; [26],7.40%
same,Mean % Suppression,plasmodium berghei; [26],0%
same,Mean % Parasitemia,plasmodium berghei; [27],9.20%
same,Mean % Suppression,plasmodium berghei; [27],1.1%
same,Mean % Parasitemia,plasmodium berghei; [28],34.0%
same,Mean % Suppression,plasmodium berghei; [28],4.2%
same,% died,"plasmodium berghei; s.c., .15 mg/kg on days 1-3, 12th day",0%
same,% died,"plasmodium berghei; s.c., .15 mg/kg on days 1-3, 13th day",20%
same,% died,"plasmodium berghei; s.c., .15 mg/kg on days 1-3, 14th day",80%
same,Mean % Parasitemia,plasmodium berghei; [29],4.50%
same,Mean % Suppression,plasmodium berghei; [29],14.3%
same,Mean % Parasitemia,plasmodium berghei; [30],7.30%
same,Mean % Suppression,plasmodium berghei; [30],0%
same,Mean % Parasitemia,plasmodium berghei; [31],9.10%
same,Mean % Suppression,plasmodium berghei; [31],2.2%
same,Mean % Parasitemia,plasmodium berghei; [32],30.8%
same,Mean % Suppression,plasmodium berghei; [32],13.2%
same,% died,plasmodium berghei; [33],40%
same,% died,plasmodium berghei; [34],60%
same,% died,plasmodium berghei; [35],100%
same,Mean % Parasitemia,plasmodium berghei; [36],4.50%
same,Mean % Suppression,plasmodium berghei; [36],14.3%
same,Mean % Parasitemia,plasmodium berghei; [37],7.20%
same,Mean % Suppression,plasmodium berghei; [37],1.4%
same,Mean % Parasitemia,plasmodium berghei; [38],8.20%
same,Mean % Suppression,plasmodium berghei; [38],11.8%
same,Mean % Parasitemia,plasmodium berghei; [39],26.5%
same,Mean % Suppression,plasmodium berghei; [39],25.4%
same,% died,"plasmodium berghei; s.c., .30 mg/kg on days 1-3, 12th day",0%
same,% died,"plasmodium berghei; s.c., .30 mg/kg on days 1-3, 13th day",0%
same,% died,"plasmodium berghei; s.c., .30 mg/kg on days 1-3, 14th day",60%
same,Mean % Parasitemia,plasmodium berghei; [40],3.50%
same,Mean % Suppression,plasmodium berghei; [40],33.3%
same,Mean % Parasitemia,plasmodium berghei; [41],7.10%
same,Mean % Suppression,plasmodium berghei; [41],2.7%
same,Mean % Parasitemia,plasmodium berghei; [42],7.30%
same,Mean % Suppression,plasmodium berghei; [42],21.5%
same,Mean % Parasitemia,plasmodium berghei; [43],24.3%
same,Mean % Suppression,plasmodium berghei; [43],31.5%
same,% died,plasmodium berghei; [44],20%
same,% died,plasmodium berghei; [45],40%
same,% died,plasmodium berghei; [46],80%
"Cc1cccc(C)c1NC(=O)NC(=N)NC(C)C.Cl [Compound E, 1-(2,6-dimethylphenyl)-3-(isopropylamidino)urea hydrochloride]",LD50,LD50 in mice,82 to 135 mg/kg
same,ED50,plasmodium berghei; [2],0.9 mg/kg
same,ED50,plasmodium berghei; [3],1.52 mg/kg
same,ED50,plasmodium berghei; [4],1.52 mg/kg
same,ED50,plasmodium berghei; [5],5.63 mg/kg
same,ED50,plasmodium berghei; [6],5.63 mg/kg
same,ED50,plasmodium berghei; [7],0.9 mg/kg
same,FACTOR (HIGHEST SED50 ÷ LOWEST SED50),plasmodium berghei; day 4 to day 10,6.26
same,Mean % Parasitemia,plasmodium berghei; [12],1.75%
same,Mean % Suppression,plasmodium berghei; [12],66.7%
same,Mean % Parasitemia,plasmodium berghei; [13],3.50%
same,Mean % Suppression,plasmodium berghei; [13],52.1%
same,Mean % Parasitemia,plasmodium berghei; [14],4.10%
same,Mean % Suppression,plasmodium berghei; [14],55.9%
same,Mean % Parasitemia,plasmodium berghei; [15],27.7%
same,Mean % Suppression,plasmodium berghei; [15],22.0%
same,% died,plasmodium berghei; [16],0%
same,% died,plasmodium berghei; [17],20%
same,% died,plasmodium berghei; [18],40%
same,Mean % Parasitemia,plasmodium berghei; [19],0%
same,Mean % Suppression,plasmodium berghei; [19],100.0%
same,Mean % Parasitemia,plasmodium berghei; [20],0%
same,Mean % Suppression,plasmodium berghei; [20],100.0%
same,Mean % Parasitemia,plasmodium berghei; [21],0%
same,Mean % Suppression,plasmodium berghei; [21],100.0%
same,Mean % Parasitemia,plasmodium berghei; [22],0%
same,Mean % Suppression,plasmodium berghei; [22],100.0%
same,% died,"plasmodium berghei; s.c., 10.0 mg/kg on days 1-3, 12th day",0%
same,% died,plasmodium berghei; [23],0%
same,% died,plasmodium berghei; [24],0%
same,Mean % Parasitemia,plasmodium berghei; [29],5.25%
same,Mean % Suppression,plasmodium berghei; [29],0%
same,Mean % Parasitemia,plasmodium berghei; [30],7.00%
same,Mean % Suppression,plasmodium berghei; [30],4.1%
same,Mean % Parasitemia,plasmodium berghei; [31],8.70%
same,Mean % Suppression,plasmodium berghei; [31],6.5%
same,Mean % Parasitemia,plasmodium berghei; [32],33.9%
same,Mean % Suppression,plasmodium berghei; [32],4.5%
same,% died,plasmodium berghei; [33],0%
same,% died,plasmodium berghei; [34],60%
same,% died,plasmodium berghei; [35],60%
same,Mean % Parasitemia,plasmodium berghei; [40],2.50%
same,Mean % Suppression,plasmodium berghei; [40],52.3%
same,Mean % Parasitemia,plasmodium berghei; [41],6.90%
same,Mean % Suppression,plasmodium berghei; [41],5.5%
same,Mean % Parasitemia,plasmodium berghei; [42],7.40%
same,Mean % Suppression,plasmodium berghei; [42],20.4%
same,Mean % Parasitemia,plasmodium berghei; [43],31.3%
same,Mean % Suppression,plasmodium berghei; [43],11.8%
same,% died,plasmodium berghei; [44],0%
same,% died,plasmodium berghei; [45],20%
same,% died,plasmodium berghei; [46],60%
C[n+]1cccc2cc(NC(=O)Nc3ccc4c(ccc[n+]4C)c3)ccc21 [acaprin],effect on equine piroplasmosis parasites,[1],only to reduce the number of parasites
